Source: paper PMC4404333, “Identification of Selective Inhibitors of the Plasmodium falciparum Hexose Transporter PfHT by Screening Focused Libraries of Anti-Malarial Compounds” (PLoS ONE, 2015)

What was measured:
[1] = system: BJ cell line (human foreskin fibroblasts); test: Mammalian cell drug susceptibility assay (Cell Titer Glo, 72 h); type: cell-based
Experimental: The BJ cell line (human foreskin fibroblasts), which express GLUT1 [26], was purchased from the ATTC and cultured according to recommendations. 1000 exponentially growing cells were plated per well (25 μL) in white polystyrene flat bottom sterile 384-well tissue culture treated plates (Corning), and incubated overnight at 37°C in a humidified 5% CO2 incubator. DMSO inhibitor stock solutions were pin-transferred (V&P Scientific) the following day. Plates were placed back in the incubator for 72 h incubation and equilibrated at room temperature for 20 min before addition of 25 μL Cell Titer Glo (Promega) to each well. Plates were shaken on an orbital shaker for 2 min at 500 rpm. Luminescence was read after 15 min on an Envision plate reader (Perkin Elmer). EC50 values were calculated with a custom program (RISE, Robust Investigation of Screening Experiments) using a four-parameter logistic equation.

[2] = system: intraerythrocytic P. falciparum parasites; set-up: method as in PMID 12792024; conditions: read-out: IC50 growth of intraerythrocytic P. falciparum parasites in vitro; cited from earlier work
P. berghei parasites = system: P. berghei parasites; set-up: method as in PMID 12792024; conditions: mice infected with P. berghei, 25 mg/kg (i.p.) twice daily; cited from earlier work
[3] = system: hepatic stage and ookinetes of P. berghei; set-up: method as in PMID 21169382, PMID 21402842; conditions: cited from earlier work
PfHT = PfHT (Plasmodium falciparum, UniProt Q7KWJ5); conditions: read-out: Ki for glucose uptake by PfHT; cited from earlier work
Chain of PfHT (Q7KWJ5 whole entry): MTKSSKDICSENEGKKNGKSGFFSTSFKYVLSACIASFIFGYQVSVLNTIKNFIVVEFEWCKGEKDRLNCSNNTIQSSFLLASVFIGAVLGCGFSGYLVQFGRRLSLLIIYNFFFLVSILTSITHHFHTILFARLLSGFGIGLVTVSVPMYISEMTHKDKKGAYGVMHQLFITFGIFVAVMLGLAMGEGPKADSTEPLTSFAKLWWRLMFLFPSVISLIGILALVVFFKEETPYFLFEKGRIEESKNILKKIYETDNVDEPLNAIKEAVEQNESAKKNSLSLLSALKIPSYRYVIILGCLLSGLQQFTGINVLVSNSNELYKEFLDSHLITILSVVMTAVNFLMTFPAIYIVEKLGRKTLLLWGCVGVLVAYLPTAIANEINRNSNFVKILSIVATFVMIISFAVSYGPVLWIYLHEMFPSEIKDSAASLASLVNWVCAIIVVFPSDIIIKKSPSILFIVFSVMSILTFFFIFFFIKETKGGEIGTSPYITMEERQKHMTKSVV

human GLUT1 = target: T1, human GLUT1 (Homo sapiens, UniProt P11166); conditions: 1 mM concentration; cited from earlier work
T1 sequence (P11166 1-492): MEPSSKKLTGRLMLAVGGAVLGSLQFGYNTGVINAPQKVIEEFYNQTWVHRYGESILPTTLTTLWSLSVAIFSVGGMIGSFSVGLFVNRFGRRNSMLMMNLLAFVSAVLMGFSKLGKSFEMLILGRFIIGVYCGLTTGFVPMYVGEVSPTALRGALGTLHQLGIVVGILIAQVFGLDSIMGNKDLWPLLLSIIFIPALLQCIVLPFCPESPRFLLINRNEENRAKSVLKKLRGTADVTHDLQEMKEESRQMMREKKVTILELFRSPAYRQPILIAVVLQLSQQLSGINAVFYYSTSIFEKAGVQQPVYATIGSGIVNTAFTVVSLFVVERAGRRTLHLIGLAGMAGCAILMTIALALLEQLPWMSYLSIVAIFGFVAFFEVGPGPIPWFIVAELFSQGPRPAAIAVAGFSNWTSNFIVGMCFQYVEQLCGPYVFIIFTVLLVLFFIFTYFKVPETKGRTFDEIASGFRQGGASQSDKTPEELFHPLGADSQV

Compound	EC50 [1]	IC50 [2]	reduction in parasitemia (P. berghei parasites)	inhibition of viability of liver and mosquito stages [3]	Ki (PfHT)	inhibition of GLUT1 (human GLUT1)
CC(C)=CCC[C@]1(C)C=Cc2c(O)c3c(c(CC=C(C)C)c2O1)O[C@]12C(=C[C@@H]4C[C@H]1C(C)(C)O[C@@]2(C/C=C(/C)C(=O)O)C4=O)C3=O [Gambogic acid, gambogic acid, reference compound]	2.5 µM					
C=CCCCCCCCCCO[C@@H]([C@H](O)[C@H](O)CO)[C@@H](O)C=O [compound 3361, 3-O-((undec-10-en)-1-yl)-D-glucose]		15.7 µM	40%	strong inhibition of viability	53 µM	no significant inhibition
